Assay [1] has as its system human melanoma cell line (518A2). As to the kind of experiment: Cell survival (cell counts) after 3 days of treatment. To be noted: for Survival in %: 3 days, vs untreated controls (=100%).
Protocol: Induction of cell death was evaluated in a human melanoma cell line (518A2) in the presence of simvastatin and NVX-207 alone or in combination. […] After 3 days of treatment, cell numbers were counted. Percentages of survival given are cell numbers compared to untreated controls (=100%). Experiments were repeated three times. Mean values are given.
The target of the next assay is T1, Apolipoprotein A1 (Bos taurus, UniProt P15497).
T1 construct: from tissue; host or cells: fetal calf serum
T1 sequence (P15497 25-265 limits assumed): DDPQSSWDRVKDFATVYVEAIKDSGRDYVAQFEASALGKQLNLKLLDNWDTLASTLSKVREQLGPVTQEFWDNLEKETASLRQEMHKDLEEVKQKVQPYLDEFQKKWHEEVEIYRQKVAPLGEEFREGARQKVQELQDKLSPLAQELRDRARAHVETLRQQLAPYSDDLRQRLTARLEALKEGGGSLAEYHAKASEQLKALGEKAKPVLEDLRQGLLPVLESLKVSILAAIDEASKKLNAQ
Nature of the assay: Identification of NVX-207 binding proteins (Sulfo-SBED biotin label transfer, 2-D gel, MALDI-TOF-MS). To be noted: Fetal Calf Serum, NVX-207 coupled to Sulfo-SBED at 5 μg/ml, with or without 20-fold molar excess of unlabeled NVX-207. The source says:
The presence of a primary amine group on NVX-207, a unique feature of this derivative compared to other known betulinic acid derived compounds, allows the coupling of other chemical compounds. A commercially available kit from Pierce was used to couple NVX-207 with biotin (Pierce-Sulfo-BED). This procedure allows the identification of NVX-207 binding proteins in protein lysates from any source. This procedure is generically illustrated in FIG. 2. In short, the amine groups of NVX-207 are modified via the Sulfo-NHS moiety of Sulfo-SBED. This derivatized NVX-207 is then incubated in the dark with a lysate or with a purified putative “prey” protein. The bait and prey complex is then captured or trapped by exposing the sample to high-intensity UV light, which activates the phenylazide moiety of Sulfo-SBED. This photoreactive group covalently links to the bound prey protein, capturing the interacting complex. […] The resulting biotin derivatized complex or prey protein can be detected using streptavidin-HRP or an anti-biotin antibody and chemiluminescent detection. […]
NVX-207 (at 5 μg/ml final concentration) coupled to […] with or without a 20-fold molar excess of unlabeled NVX-207 and resolved by 2-D gel electrophoresis. […] Several spots of similar molecular weight (˜24 kDa) and differing IP (in the range of 4.8 to 5.6) were detected by streptavidin-POD after 2-dimensional (2-D) gel electrophoresis.

We go through one compound from US20060252733A1, “Betulin, betulin derivatives, betulinic acid and betulinic acid derivatives as novel therapeutics in the treatment of disease of lipid and/or glucose metabolism” (Novelix Pharmaceuticals, Inc., priority 2005, published 2006).

As to `C=C(C)[C@@H]1CC[C@]2(C(=O)OCC(N)(CO)CO)CC[C@]3(C)[C@H](CC[C@@H]4[C@@]5(C)CC[C@H](OC(C)=O)C(C)(C)[C@@H]5CC[C@]43C)[C@@H]12` [NVX-207], in assay [1] (518A2 cells, in combination with simvastatin), the “effect on statin-induced cell death” value was “reduces statin-induced cell death”. The Survival in % turned out to be 94% in assay [1] (NVX-207 0.5 μg/ml), 73% in assay [1] (NVX-207 1.0 μg/ml), 26% in assay [1] (NVX-207 2.0 μg/ml) and 0% in assay [1] (NVX-207 4.0 μg/ml). In addition, at Apolipoprotein A1, the “binding to Apolipoprotein A1” value is listed as “binds to Apolipoprotein A1”.
